Tested on in one experiment: not listed separately
As to the kind of experiment: Antiproliferative activity against rat Synovial cell assessed as inhibition of cell growth incubated for 48 hrs by CCK-8 assay. Type of experiment: functional, cell-based.
Settings: not given
In general terms: Tetrazolium dyes change colour on reduction, which living cells bring about.
Toll-like receptor 4, sequence (O00206 whole entry): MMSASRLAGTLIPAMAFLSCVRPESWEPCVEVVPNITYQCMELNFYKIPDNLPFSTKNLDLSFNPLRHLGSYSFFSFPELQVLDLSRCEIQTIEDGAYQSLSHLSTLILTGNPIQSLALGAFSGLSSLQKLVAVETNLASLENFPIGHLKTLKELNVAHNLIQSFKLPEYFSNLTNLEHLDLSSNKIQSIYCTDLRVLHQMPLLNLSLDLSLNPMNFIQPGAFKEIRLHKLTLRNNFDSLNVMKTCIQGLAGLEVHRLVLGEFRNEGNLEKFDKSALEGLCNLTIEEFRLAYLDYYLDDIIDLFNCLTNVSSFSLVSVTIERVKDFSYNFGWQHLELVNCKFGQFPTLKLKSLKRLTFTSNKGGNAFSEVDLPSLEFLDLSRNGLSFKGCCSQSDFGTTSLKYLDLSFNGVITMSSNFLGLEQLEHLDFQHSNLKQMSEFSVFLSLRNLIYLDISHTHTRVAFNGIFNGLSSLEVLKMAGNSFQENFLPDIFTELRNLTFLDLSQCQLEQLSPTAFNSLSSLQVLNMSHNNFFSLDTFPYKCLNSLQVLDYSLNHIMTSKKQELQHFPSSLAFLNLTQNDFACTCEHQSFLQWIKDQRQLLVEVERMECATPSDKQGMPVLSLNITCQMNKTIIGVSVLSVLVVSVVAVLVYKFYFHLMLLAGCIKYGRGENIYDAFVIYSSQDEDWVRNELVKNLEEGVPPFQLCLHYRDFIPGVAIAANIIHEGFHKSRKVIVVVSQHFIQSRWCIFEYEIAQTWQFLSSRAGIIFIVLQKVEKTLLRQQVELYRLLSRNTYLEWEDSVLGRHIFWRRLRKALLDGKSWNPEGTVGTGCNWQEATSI
Take `CC(=O)CC(=O)C1CC(C)CCC1=O` (centres undefined): the IC50 (usually the concentration at which inhibition is half-maximal) is 3320 nM.

Regarding `CC(=O)CC(=O)C1CC(N)CCC1=O` (centres undefined), the IC50 is 2150 nM.

Regarding `CC(=O)CC(=O)C1CC(NC(=O)OC(C)(C)C)CCC1=O` (centres undefined), the IC50 worked out at 5110 nM.

As to `CC(=O)CC(=O)C1CC(NC(=O)OCc2ccccc2)CCC1=O` (centres undefined), the IC50 came to 4250 nM.

Take `CC(=O)CC(=O)C1CC(C2CCC3(CC2)OCCO3)CCC1=O` (centres undefined): the IC50 was 5220 nM.

Take `CCCCC1CCC(=O)C(C(=O)CC(C)=O)C1` (centres undefined): the IC50 is 2720 nM.

Consider `CC(=O)CC(=O)C1CC(c2ccccc2)CCC1=O` (centres undefined), for which the IC50 is 3950 nM.

Consider `CC(=O)CC(=O)C1CC(C(C)(C)C)CCC1=O` (centres undefined), for which the IC50 was 6430 nM.

On to `CCOC(=O)C1CCC(=O)C(C(=O)CC(C)=O)C1` (centres undefined), for which the IC50 came out at 5440 nM.

Take `CC(=O)CC(=O)C1CCCCC1=O` (centres undefined): the IC50 is 4450 nM.

As to `COC(=O)C1CCC(=O)C(C(=O)CC(C)=O)C1` (centres undefined), the half-inhibitory concentration (IC50) is 16600 nM.

Another experiment relates to RAW264.7. As to the kind of experiment: Antiproliferative activity against LPS-induced- mouse RAW264.7 cells assessed as inhibition of cell growth incubated for 24 hrs by CCK-8 assay. Type of experiment: functional, cell-based. The conditions noted are these: RAW264.7, 24 h.
Turning to `CC(=O)CC(=O)C1CC(C)CCC1=O` (centres undefined), the IC50 was determined as 1690 nM.

`CC(=O)CC(=O)C1CC(N)CCC1=O` (centres undefined): the IC50 was found to be 1200 nM.

For the compound `CC(=O)CC(=O)C1CC(NC(=O)OC(C)(C)C)CCC1=O` (centres undefined), the IC50 is 2670 nM.

For the compound `CC(=O)CC(=O)C1CC(NC(=O)OCc2ccccc2)CCC1=O` (centres undefined), the IC50 turned out to be 2350 nM.

Regarding `CC(=O)CC(=O)C1CC(C2CCC3(CC2)OCCO3)CCC1=O` (centres undefined), the IC50 came out at 2510 nM.

Take `CCCCC1CCC(=O)C(C(=O)CC(C)=O)C1` (centres undefined): the concentration for half-maximal inhibition (IC50) turned out to be 1560 nM.

Regarding `CC(=O)CC(=O)C1CC(c2ccccc2)CCC1=O` (centres undefined), the IC50 is 2180 nM.

As to `CC(=O)CC(=O)C1CC(C(C)(C)C)CCC1=O` (centres undefined), the IC50 was 2930 nM.

For `CCOC(=O)C1CCC(=O)C(C(=O)CC(C)=O)C1` (centres undefined), the IC50 amounted to 2630 nM.

For the compound `CC(=O)CC(=O)C1CCCCC1=O` (centres undefined), the IC50 came to 3110 nM.

On to `COC(=O)C1CCC(=O)C(C(=O)CC(C)=O)C1` (centres undefined), for which the IC50 is 7400 nM.

The test system of a further experiment is RAW264.7. Kind of experiment: Antiarthritic activity against LPS-induced mouse RAW264.7 cells assessed as reduction in TNF-alpha level at 1 uM incubated for 24 hrs (Rvb 653.3 +/- 70.1 pg/L). Type of experiment: functional.
Settings: not given
In the case of `CC(=O)CC(=O)C1CC(C)CCC1=O` (centres undefined), the Activity stood at 399.1 pg/L.

In the case of `CC(=O)CC(=O)C1CC(N)CCC1=O` (centres undefined), the Activity was 332.9 pg/L.

On to `CCCCC1CCC(=O)C(C(=O)CC(C)=O)C1` (centres undefined), for which the Activity turned out to be 401.6 pg/L.

Another experiment deals with RAW264.7. As to the kind of experiment: Antiarthritic activity against LPS-induced mouse RAW264.7 cells assessed as reduction in IL-1beta level at 1 uM incubated for 24 hrs (Rvb 665.1 +/- 82.1 pg/L). Type of experiment: functional.
Settings: not given
For `CC(=O)CC(=O)C1CC(C)CCC1=O` (centres undefined), the Activity turned out to be 457.8 pg/L.

`CC(=O)CC(=O)C1CC(N)CCC1=O` (centres undefined): the Activity is 367.3 pg/L.

`CCCCC1CCC(=O)C(C(=O)CC(C)=O)C1` (centres undefined): the Activity was found to be 481.6 pg/L.

A further experiment relates to RAW264.7. As to the kind of experiment: Antiarthritic activity against LPS-induced mouse RAW264.7 cells assessed as reduction in IL-6 level at 1 uM incubated for 24 hrs (Rvb 231.1 +/- 24.2 pg/L). Type of experiment: functional.
Settings: not given
For `CC(=O)CC(=O)C1CC(C)CCC1=O` (centres undefined), the Activity turned out to be 176.6 pg/L.

Take `CC(=O)CC(=O)C1CC(N)CCC1=O` (centres undefined): the Activity amounted to 136.9 pg/L.

Take `CCCCC1CCC(=O)C(C(=O)CC(C)=O)C1` (centres undefined): the Activity is reported as 187.4 pg/L.

A further experiment addresses Toll-like receptor 4 (Homo sapiens, UniProt O00206). Kind of experiment: Inhibition of TLR4 (unknown origin) using TMB as substrate incubated for 90 mins.
Settings: not given
Compound `CC(=O)CC(=O)C1CC(C)CCC1=O` (centres undefined) returned an IC50 of 1150 nM.

Compound `CC(=O)CC(=O)C1CC(N)CCC1=O` (centres undefined) returned an IC50 of 1030 nM.

For the compound `CCCCC1CCC(=O)C(C(=O)CC(C)=O)C1` (centres undefined), the IC50 was 1860 nM.
